Assay results: PMC7376718, “Flavonoids isolated from the South African weed Chromolaena odorata (Asteraceae) have pharmacological activity against uropathogens” (BMC Complementary Medicine and Therapies, 2020)
In brackets after ≈: the same amount, converted by molar mass. Read-outs that look alike come from different tables or passages of the source.

How the values were obtained:
[1] = tested on: E. coli; assay: Cell adhesion to BSA-coated polystyrene surface; type: cell-based, Escherichia coli; settings: 1 mg/mL, polystyrene microplate
Experimental: (§1) Anti-adhesion activity of isolated compounds was determined using the method of Namasivayam and Vivek with slight modification. To a sterile 96-well flat-bottomed polystyrene microtititre plate, 150 μL of freshly prepared 1% lyophilized powdered globular protein BSA, dissolved in water was added to all wells except for the wells allocated for media only. The plates were incubated for 30 min at 30 °C. Following incubation the wells were washed three times with PBS. To the wells, 50 μL of bacterial cultures equivalent to 1 × 10^6 cfu/mL read at 590 nm, prepared from overnight cultures were added. […] The seeded microtitre plates were incubated for 24 h at 37 °C. Non-adhered cells were washed five times with PBS at room temperature. Adhered cells were stained by the addition of 50 μL of 0.1% crystal violet and further incubation for a further 30 min at room temperature. Afterwards, wells were washed with sterile distilled water to remove excess stain followed by the addition of 10 μL of absolute ethanol to fix the adhered cells. Finally, 50 μL of 0.2% Triton X was added to the wells to lyse the cells and the absorbance was read at 570 nm using a microplate reader. Percentage adherence inhibition was calculated using the formula above.

[2] = tested on: Aspergillus fumigatus from a chicken; assay: MIC, serial microdilution with INT; type: cell-based; settings: Aspergillus fumigatus, read-out: Minimum inhibitory concentration
Text: (§2) The cultures used were Escherichia coli (American Type Culture Collection, ATCC 25922) labelled as 1, E. coli isolates (B1989/17 and B1962/17) labelled as 2 and 3 from equine urine, collected from the Department of Veterinary Tropical Diseases, Faculty of Veterinary Science, University of Pretoria, South Africa, Klebsiella pneumoniae isolate from commercial chicken eggs, Enterococcus faecalis (ATCC 29212), Pseudomonas aeruginosa (ATCC 27853), Staphylococcus aureus (ATCC 29213), Candida albicans from a Gouldian finch, Aspergillus fumigatus from a chicken and Cryptococcus neoformans from a cheetah. These microbial strains were maintained on MHA or SDA for bacteria and fungi respectively, while the isolates were maintained on blood agar.
(§3) Ten mg/mL of each fraction and 1 mg/mL of isolated compounds were prepared in 10% DMSO and tested against S. aureus, E. coli, K. pneumoniae, E. faecalis, P. aeruginosa, C. albicans, C. neoformans and A. fumigatus. Cultures were prepared by inoculating each microbial strain from prepared agar plates into sterilized MHB for bacterial and SDB for fungi in sterile McCartney bottles respectively. The inoculums were placed in an orbital shaker incubator. Bacterial strains were incubated at 37 °C for 18 h. Each bacterial culture was diluted in fresh MHB and the absorbance was measured at a wavelength of 560 nm using a microplate reader (Epoch Biotek). The readings were compared to a McFarland standard No. 1 correlating to approximately 3 × 10^8 cfu/mL). For fungi strains, cultures were incubated at 30 °C for 24 h (C. albicans), 72 h (C. neoformans) and 120 h (A. fumigatus) respectively. The resultant cells and spores were washed with sterile normal saline and absorbance was measured at a wavelength of 560 nm and turbidity was adjusted to a McFarland standard 1.This was further diluted in a 1:10 ratio in SDB to a turbidity of 5 × 10^5 cfu/mL. These diluted cultures (bacterial and fungi) were used for the screening following the serial microdilution method of Eloff.

[3] = tested on: Klebsiella pneumoniae isolate from commercial chicken eggs; assay: MIC, serial microdilution with INT; type: cell-based; settings: Klebsiella pneumoniae, K. pneumoniae; read-out: Minimum inhibitory concentration
Text: as §2, §3

[4] = tested on: Staphylococcus aureus (ATCC 29213); assay: MIC, serial microdilution with INT; type: cell-based; settings: ATCC29213, S. aureus, read-out: Minimum inhibitory concentration
Text: as §2, §3

[5] = tested on: Cryptococcus neoformans from a cheetah; assay: MIC, serial microdilution with INT; type: cell-based; settings: C. neoformans, read-out: Minimum inhibitory concentration
Text: as §2, §3

[6] = tested on: Escherichia coli (ATCC 25922), E. coli (1); assay: MIC, serial microdilution with INT; type: cell-based; settings: Escherichia coli, ATCC25922, E. coli (1), read-out: Minimum inhibitory concentration
Text: as §2, §3

[7] = tested on: E. coli (B1989/17) isolate from equine urine, E. coli (2); assay: MIC, serial microdilution with INT; type: cell-based; settings: Escherichia coli, read-out: Minimum inhibitory concentration
Text: as §2, §3

[8] = tested on: E. coli (B1962/17) isolate from equine urine, E. coli (3); assay: MIC, serial microdilution with INT; type: cell-based; settings: Escherichia coli, read-out: Minimum inhibitory concentration
Text: as §2, §3

[9] = tested on: S. aureus; assay: Cell adhesion to BSA-coated polystyrene surface; type: cell-based, Staphylococcus aureus; settings: 1 mg/mL, polystyrene microplate
Experimental: as §1

[10] = tested on: S. aureus (ATCC 29213) biofilm; assay: Biofilm inhibition, crystal violet staining; type: cell-based, Staphylococcus aureus; settings: for Biofilm inhibition (verdict in words): planktonic (0 h) and biofilm (24 h) stages, 1 mg/mL and MIC level
Experimental: (§4) A single colony of E. coli (ATCC 25922) and S. aureus (ATCC 29213), strains were each inoculated into TSB and incubated for 24 h. The biofilm inhibition assay was carried out by adopting the method described by […] et al.. Two stages; planktonic, T0 and biofilm formation, T24 were investigated against the 24 h prepared bacterial cultures. One hundred microliters of each standardised bacterial culture (OD590 1 × 10^6 cfu/mL) was aliquoted into wells of a sterile flat bottomed 96-well microplate. Plates prepared for 24 h biofilm formation were immediately sealed with an adhesive sealer, placed in the incubator and incubated for 24 h at 37 °C. […] To the plates prepared for 0 h, the samples were added immediately. Wells containing cultures only, as well as acetone and sterile distilled water used to prepare the samples were included as controls. All plates after the addition of samples were sealed and incubated for 24 h to enable the samples to react with the biofilms. The incubated plates were washed with sterile distilled water three to four times after incubation to remove the unattached cells and were placed in the oven at 60 °C for 45 min. To all wells, 100 μL of 1% crystal violet dissolved in distilled water was added and plates were incubated for 15 min at room temperature after which the plates were washed again with sterile distilled water to remove unabsorbed stain. One hundred and twenty-five microliters of 100% ethanol was added to destain the wells. From the wells, 100 μL of the destaining solution was transferred to a new plate and semi-quantitative assessment of biofilm formation was done by measuring absorbance at 590 nm using SoftMax […] software on a microplate reader (SpectraMax M2). The mean absorbance of the samples was determined, and percentage inhibition was obtained using the equation below: percentage inhibiton=mean of culture control-mean of sample/mean of culture controlx100

[11] = tested on: S. aureus, E. coli (1), E. coli (2), E. coli (3), K. pneumoniae; assay: Mean MIC over the bacterial strains; type: cell-based; settings: mean over the five bacterial strains of Table 3
Text: as §2, §3

[12] = tested on: E. coli (ATCC 25922) biofilm; assay: Biofilm inhibition, crystal violet staining; type: cell-based, Escherichia coli; settings: planktonic (0 h) and biofilm (24 h) stages, 1 mg/mL and MIC level
Experimental: as §4, with “All plates after the addition of samples were sealed and incubated for 24 h to enable the samples to react with the biofilms. The incubated plates were washed with sterile distilled water three to four times after incubation to remove the unattached cells and were placed in the oven at 60 °C for 45 min. To all wells, 100 μL of 1% crystal violet dissolved in distilled water was added and plates were incubated for 15 min at room temperature after which the plates were washed again with sterile distilled water to remove unabsorbed stain. One hundred and twenty-five microliters of 100% ethanol was added to destain the wells.” left out

SMILES: COc1ccc(C2CC(=O)c3c(OC)cc(OC)cc3O2)cc1 (racemic) [Compound 2, (±)-4′,5,7-trimethoxy flavanone]
- Adherence inhibition (verdict in words) [1]: weak
- MIC ([2]; 48 h): 16 µg/mL (≈ 50.9 µM)
- MIC ([2]; 72 h): 125 µg/mL (≈ 398 µM)
- MIC ([2]; 120 h): > 2500 µg/mL
- MIC [3]: 125 µg/mL (≈ 398 µM)
- MIC [4]: 31 µg/mL (≈ 98.6 µM)
- MIC ([5]; 48 h, 48 h): 16 µg/mL (≈ 50.9 µM)
- MIC ([5]; 72 h, 72 h): 125 µg/mL (≈ 398 µM)
- MIC [6]: 31 µg/mL (≈ 98.6 µM)
- MIC [7]: 31 µg/mL (≈ 98.6 µM)
- MIC [8]: 31 µg/mL (≈ 98.6 µM)
- Adherence inhibition (verdict in words) [9]: weak
- Biofilm inhibition (verdict in words) [10]: good and poor inhibition and good inhibitory activity
- MIC [11]: 50 ± 40 µg/mL (≈ 159 µM)
- Mean MIC [11]: 50 µg/mL
- Biofilm inhibition (verdict in words) [12]: good and good activity and good inhibitory activity

SMILES: COc1ccc(-c2oc3cc(OC)cc(O)c3c(=O)c2OC)cc1 [Compound 3, 5-hydroxy-3,7,4′-trimethoxyflavone]
- Adherence inhibition (verdict in words) [1]: weak
- MIC ([2]; 48 h): 31 µg/mL (≈ 94.4 µM)
- MIC ([2]; 72 h): 250 µg/mL (≈ 761 µM)
- MIC ([2]; 120 h): > 2500 µg/mL
- MIC [3]: 125 µg/mL (≈ 381 µM)
- MIC [4]: 16 µg/mL (≈ 48.7 µM)
- MIC ([5]; 48 h, 48 h): > 250 µg/mL
- MIC ([5]; 72 h, 72 h): > 250 µg/mL
- MIC [6]: 63 µg/mL (≈ 192 µM)
- MIC [7]: 250 µg/mL (≈ 761 µM)
- MIC [8]: 250 µg/mL (≈ 761 µM)
- Adherence inhibition (verdict in words) [9]: weak
- Biofilm inhibition ([10]; at 24 h): higher than 50%
- Biofilm inhibition (verdict in words) [10]: good and good inhibitory activity
- MIC [11]: 140 µg/mL (≈ 426 µM)
- Biofilm inhibition (verdict in words) [12]: good and good activity and good inhibitory activity
